Like-named read-outs stand apart in the source and are kept apart here.
Legend:
[1] = target: T1, HIV-1 protease (Q7S mutant form) (Human immunodeficiency virus type 1 group M subtype B, UniProt P04585, Q495S); experiment: HIV-1 Protease RET assay; format: biochemical; settings: Ave. Ki (nM), RET assay, Q7S enzyme, Morrison tight binding fit
T1 construct: made in house
Method in brief: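 Q7S HIV-1 protease, refolded from urea, 2 nM active dimer with 5 μM EDANS/DABCYL peptide cleaved at Tyr-Pro; fluorescence 340/490 nm. 12 min at 37 °C in 0.1M sodium acetate pH 4.8, 1M NaCl, 10% DMSO. Ki from Morrison tight-binding fit.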

[2] = tested on: HIV-1 (HIV-1 RF, HIV-1 NL4-3) in CEM-SS / MT-2 cells; experiment: Cytopathic effect (CPE) inhibition assay (XTT/MTT dye reduction); format: cell-based
Method in brief: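 CEM-SS or MT-2 cells were infected with HIV-1 RF or NL4-3 (moi 0.025–0.819) and plated at 2×10^4 cells/well with half-log compound dilutions for 6 days. Viability was read by XTT formazan at 450 nm after 4 h. EC50 restores formazan to 50% of uninfected untreated cells, CC50 halves it in uninfected cells, and TI = CC50/EC50.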

[3] = Human immunodeficiency virus 1, NL43, read-out: Ave CPE EC50
[4] = Human immunodeficiency virus 1, NL43, read-out: Ave CPE EC50 (mM)

Row | Compound | Ki [1] | EC50 [2, 3] | EC50 [2, 4]
1 | Cc1c(O)cccc1C(=O)N[C@@H](Cc1ccccc1)[C@H](O)C(=O)N1CSC(C)(C)[C@H]1C(=O)N[C@@H]1CCCc2occc21 [Example A47, 3-[2-Hydroxy-3-(3-hydroxy-2-methyl-benzoylamino)-4-phenyl-butyryl]-5,5-dimethyl-thiazolidine-4-carboxylic acid (4,5,6,7-tetrahydro-benzofuran-4-yl)-amide] | 0.27 nM | 196 nM | 
2 | Cc1c(O)cccc1C(=O)N[C@@H](Cc1ccccc1)[C@H](O)C(=O)N1CSC(C)(C)[C@H]1C(=O)N[C@@H]1CCCc2sccc21 [Example A49, 3-[2-Hydroxy-3-(3-hydroxy-2-methyl-benzoylamino)-4-phenyl-butyryl]-5,5-dimethyl-thiazolidine-4-carboxylic acid (4,5,6,7-tetrahydro-benzo[b]thiophen-4-yl)-amide] | 0.49 nM | 161 nM | 
3 | Cc1c(O)cccc1C(=O)N[C@@H](Cc1ccccc1)[C@H](O)C(=O)N1CSC(C)(C)[C@H]1C(=O)N[C@@H]1CCc2ncccc21 [Example A52, 3-[2-Hydroxy-3-(3-hydroxy-2-methyl-benzoylamine)-4-phenyl-butyryl]-5,5-dimethyl-thiazolidine-4-carboxylic acid (6,7-dihydro-5H-[1]pyrindin-5-yl)-amide] | 0.51 nM | 456 nM | 
4 | Cc1c(O)cccc1C(=O)N[C@@H](Cc1ccccc1)[C@H](O)C(=O)N1CSC(C)(C)[C@H]1C(=O)NCc1oc2ccccc2c1C [Example A54, (R)-3-[(2S,3S)-2-Hydroxy-3-(3-hydroxy-2-methyl-benzoylamino)-4-phenyl-butyryl]-5,5-dimethyl-thiazolidine-4-carboxylic acid (3-methyl-benzofuran-2-ylmethyl)-amide] | 4.5 nM | 1230 nM | 
5 | Cc1c(O)cccc1C(=O)N[C@@H](Cc1ccccc1)[C@H](O)C(=O)N1CSC(C)(C)[C@H]1C(=O)NN(C)c1ccccc1 [Example A57, N-{(1S,2S)-1-Benzyl-3-[(R)-5,5-dimethyl-4-(N′-methyl-N′-phenyl-hydrazinocarbonyl)-thiazolidin-3-yl]-2-hydroxy-3-oxo-propyl}-3-hydroxy-2-methyl-benzamide] | 5.6 nM | 1530 nM | 
6 | Cc1c(O)cccc1C(=O)N[C@@H](Cc1ccccc1)[C@H](O)C(=O)N1CSC(C)(C)[C@H]1C(=O)NCc1ccc2c(c1)OC(F)(F)O2 [Example A59, (R)-3-((2S,3S)-2-Hydroxy-3-{[1-(3-hydroxy-2-methyl-phenyl)-methanoyl]-amino}-4-phenyl-butanoyl)-5,5-dimethyl-thiazolidine-4-carboxylic acid (2,2-difluoro-benzo[1,3]dioxol-5-ylmethyl)-amide] | 0.19 nM |  | 417 nM
7 | Cc1c(O)cccc1C(=O)N[C@@H](Cc1ccccc1)[C@H](O)C(=O)N1CSC(C)(C)[C@H]1C(=O)NCc1cc2ccccc2[nH]1 [Example A61, (R)-3-[(2S,3S)-2-Hydroxy-3-(3-hydroxy-2-methyl-benzoylamino)-4-phenyl-butyryl]-5,5-dimethyl-thiazolidine-4-carboxylic acid (1H-indol-2-ylmethyl)-amide] | 0.99 nM | 1060 nM | 
8 | Cc1c(O)cccc1C(=O)N[C@@H](Cc1ccccc1)[C@H](O)C(=O)N1CSC(C)(C)[C@H]1C(=O)NCc1cc2ccccc2o1 [Example A62, (R)-3-[(2S,3S)-2-Hydroxy-3-(3-hydroxy-2-methyl-benzoylamino)-4-phenyl-butyryl]-5,5-dimethyl-thiazolidine-4-carboxylic acid (benzofuran-2-ylmethyl)-amide] | 9.6 nM | 2260 nM | 
9 | Cc1c(O)cccc1C(=O)N[C@@H](Cc1ccccc1)[C@H](O)C(=O)N1CSC(C)(C)[C@H]1C(=O)NCc1cc2ccccc2n1C [Example A63, (R)-3-[(2S,3S)-2-Hydroxy-3-(3-hydroxy-2-methyl-benzoylamino)-4-phenyl-butyryl]-5,5-dimethyl-thiazolidine-4-carboxylic acid (1-methyl-1H-indol-2-ylmethyl)-amide] | 4.5 nM | 1190 nM | 
10 | Cc1ccccc1CNC(=O)[C@H]1N(C(=O)[C@@H](O)[C@H](Cc2ccccc2)NC(=O)c2cccc3c2CCCN3)CSC1(C)C [Example B2, 1,2,3,4-Tetrahydro-quinoline-5-carboxylic acid {(1S,2S)-1-benzyl-3-[(R)-5,5-dimethyl-4-(2-methyl-benzylcarbamoyl)-thiazolidin-3-yl]-2-hydroxy-3-oxo-propyl}-amide] | 0.35 nM | 87 nM | 
11 | Cc1ccccc1CNC(=O)[C@H]1N(C(=O)[C@@H](O)[C@H](Cc2ccccc2)NC(=O)N2CC[C@@H](O)C2)CSC1(C)C [Example B3, 3-(2-hydroxy-3-{[1-(3-hydroxy-pyrrolidin-yl)-methanoyl]-amino}-4-phenyl-butanoyl)-5,5-dimethyl-thiazolidine-4-carboxylic acid-2-methyl-benzylamide] | 2.5 nM |  | 905 nM
12 | Cc1ccccc1CNC(=O)[C@H]1N(C(=O)[C@@H](O)[C@H](Cc2ccccc2)NC(=O)CSc2nc[nH]n2)CSC1(C)C [Example B4, 3-{2-Hydroxy-4-phenyl-3-[2-(2H-[1,2,4t]triazol-3-ylsufanyl)-ethanoylamino]-butanoyl}5,5-dimethyl-thiazolidine-4-carboxylic acid-2-methyl-benzylamide] | 3 nM | 707 nM | 
13 | Cc1ccccc1CNC(=O)[C@H]1N(C(=O)[C@@H](O)[C@H](Cc2ccccc2)NC(=O)O[C@@H]2CCS[C@@H]2C(C)C)CSC1(C)C [Example B5, {(1S,2S)-1-Benzyl-3-[(R)-5,5-dimethyl-4-(2-methyl-benzylcarbamoyl)-thiazolidin-3-yl]-2-hydroxy-3-oxo-propyl}-carbamic acid (R)-2-isopropyl-tetrahydro-thiophen-3-yl ester] | 1.2 nM | 314 nM | 
14 | Cc1ccccc1CNC(=O)[C@H]1N(C(=O)[C@@H](O)[C@H](Cc2ccccc2)NC(=O)c2cccc3[nH]ccc23)CSC1(C)C [Example B8, 1H-Indole-4-carboxylic acid {(1S,2S)-1-benzyl-3-[(R)-5,5-dimethyl-4-(2-methyl-benzylcarbamoyl)-thiazolidin-3-yl]-2-hydroxy-3-oxo-propyl}-amide] | 0.63 nM | 474 nM | 
15 | Cc1ccccc1CNC(=O)[C@H]1N(C(=O)[C@@H](O)[C@H](Cc2ccccc2)NC(=O)c2cccc3[nH]ncc23)CSC1(C)C [Example B9, 1H -Indazle-4-carboxylic acid {1-benzyl-3-[5,5-dimethyl-4-(2-methyl-benzylcarbamoyl)-thiazolidin-3-yl]-2-hydroxy-3-oxo-propyl}-amide] | 1.1 nM | 452 nM | 
16 | C#CCOC(=O)N[C@@H](Cc1ccccc1)[C@H](O)C(=O)N1CSC(C)(C)[C@H]1C(=O)NCc1ccccc1C [Example B10, {(1S,2S)-1-Benzyl-3-[(R)-5,5-dimethyl-4-(2-methyl-benzylcarbamoyl)-thiazolidin-3-yl]-2-hydroxy-3-oxo-propyl}-carbamic acid prop-2-ynyl ester] | 0.57 nM | 386 nM | 
17 | CCC(C)C(=O)N[C@@H](Cc1ccccc1)[C@H](O)C(=O)N1CSC(C)(C)[C@H]1C(=O)NCc1ccccc1C (stereo partly drawn) [Example B12, (R)-3-[(2S,3S)-2-Hydroxy-3-(2-methyl-butyrylamino)-4-phenyl-butyryl]-5,5-dimethyl-thiazolidine-4-carboxylic acid 2-methyl-benzylamide] | 9.9 nM | > 1000 nM | 
18 | C=CCNC(=O)N[C@@H](Cc1ccccc1)[C@H](O)C(=O)N1CSC(C)(C)[C@H]1C(=O)NCc1ccccc1C [Example B13, (R)-3-[(2S,3S)-3-(3-Allyl-ureido)-2-hydroxy-4-phenyl-butyryl]-5,5-dimethyl-thiazolidine-4-carboxylic acid 2-methyl-benzylamide] | 2 nM | 1460 nM | 
19 | C=CCCOC(=O)N[C@@H](Cc1ccccc1)[C@H](O)C(=O)N1CSC(C)(C)[C@H]1C(=O)NCc1ccccc1C [Example B14, {(1S,2S)-1-Benzyl-3-[(R)-5,5-dimethyl-4-(2-methyl-benzylcarbamoyl)-thiazolidin-3-yl]-2-hydroxy-3-oxo-propyl}-carbamic acid but-3-enyl ester] | 2.7 nM | 1660 nM | 
20 | Cc1ccccc1CNC(=O)[C@H]1N(C(=O)[C@@H](O)[C@H](Cc2ccccc2)NC(=O)C2CC2)CSC1(C)C [Example B15, 3-[(S)-3-(Cyclopropanecarbonyl-amino)-2-hydroxy-4-phenyl-butyryl]-5,5-dimethyl-thiazolidine-4-carboxylic acid 2-methyl-benzylamide] | 1.3 nM | 2300 nM | 
21 | Cc1ccccc1CNC(=O)[C@H]1N(C(=O)[C@@H](O)[C@H](Cc2ccccc2)NC(=O)OC(C)C)CSC1(C)C [Example B16, {(S)-1-Benzyl-3-[5,5-dimethyl-4-(2-methyl-benzylcarbamoyl)-thiazolidin-3-yl]-2-hydroxy-3-oxo-propyl}-carbamic acid isopropyl ester] | 2.6 nM | 1570 nM | 
22 | C#CCCC(=O)N[C@@H](Cc1ccccc1)[C@H](O)C(=O)N1CSC(C)(C)[C@H]1C(=O)NCc1ccccc1C [Example B18, (R)-3-((2S,3S)-2-Hydroxy-3-pent-4-ynoylamino-4-phenyl-butyryl)-5,5-dimethyl-thiazolidine-4-carboxylic acid 2-methyl-benzylamide] | 0.56 nM | 1250 nM | 
